{
  "source": "PubChem BioAssay AID330",
  "about": "(DTP/NCI, 2004)",
  "system": "P388 leukemia ip, CD2F1 mice, survival T/C",
  "assay": "NCI In Vivo Anticancer Drug Screen. Data for tumor model P388 Leukemia (intraperitoneal) in CD2F1 (CDF1) mice",
  "settings": "endpoint: median survival time, higher = longer survival",
  "in_short": "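Mice carrying the transplanted tumor received test compound or vehicle. Survival was recorded in each group, and the value is the treated-group measurement divided by that of the vehicle-treated control group.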",
  "key": {"[1]": {"settings": "dose: 50.0 mg/kg/injection, schedule: Q01DX009 (ip), vehicle: saline"}, "[2]": {"settings": "dose: 100.0 mg/kg/injection, schedule: Q01DX009 (ip), vehicle: saline"}, "[3]": {"settings": "dose: 200.0 mg/kg/injection, schedule: Q01DX009 (ip), vehicle: saline"}, "[4]": {"settings": "dose: 60.0 mg/kg/injection, schedule: Q01DX005 (ip), vehicle: saline"}, "[5]": {"settings": "dose: 120.0 mg/kg/injection, schedule: Q01DX005 (ip), vehicle: saline"}, "[6]": {"settings": "dose: 240.0 mg/kg/injection, schedule: Q01DX005 (ip), vehicle: saline"}, "[7]": {"settings": "dose: 50.0 mg/kg/injection, schedule: Q01DX009 (ip), vehicle: saline with Tween-80"}, "[8]": {"settings": "dose: 60.0 mg/kg/injection, schedule: Q01DX005 (ip), vehicle: saline with Tween-80"}, "[9]": {"settings": "dose: 100.0 mg/kg/injection, schedule: Q01DX009 (ip), vehicle: saline with Tween-80"}, "[10]": {"settings": "dose: 120.0 mg/kg/injection, schedule: Q01DX005 (ip), vehicle: saline with Tween-80"}, "[11]": {"settings": "dose: 200.0 mg/kg/injection, schedule: Q01DX009 (ip), vehicle: saline with Tween-80"}, "[12]": {"settings": "dose: 240.0 mg/kg/injection, schedule: Q01DX005 (ip), vehicle: saline with Tween-80"}, "[13]": {"settings": "dose: 6.25 mg/kg/injection, schedule: Q01DX005 (ip), vehicle: Klucel (hydroxypropylcellulose) (HPC)"}, "[14]": {"settings": "dose: 12.5 mg/kg/injection, schedule: Q01DX005 (ip), vehicle: Klucel (hydroxypropylcellulose) (HPC)"}, "[15]": {"settings": "dose: 25.0 mg/kg/injection, schedule: Q01DX005 (ip), vehicle: Klucel (hydroxypropylcellulose) (HPC)"}},
  "note": "“And” between values parts separate entries of the source, which are not always exact repeats. Equal entries are not always repeated. Toxic doses and inconclusive results are not listed.",
  "data": [
    {"smiles": "O=c1oc2ccccc2n1P(=O)(N1CCOCC1)N1CCOCC1", "values": [
      {"measurement": "T/C", "setting": "[1]", "result": "100 % of control"},
      {"measurement": "T/C", "setting": "[2]", "result": "98 % of control"},
      {"measurement": "T/C", "setting": "[3]", "result": "95 % of control"}
    ]},
    {"smiles": "O=S(=O)(O)CCCNC(CO)(CO)CO", "values": [
      {"measurement": "T/C", "setting": "[4]", "result": "106 % of control"},
      {"measurement": "T/C", "setting": "[5]", "result": "107 % of control"},
      {"measurement": "T/C", "setting": "[6]", "result": "107 % of control"}
    ]},
    {"smiles": "CC1CCC(C(C)C)C(NN)C1", "note": "(configuration not stated)", "values": [
      {"measurement": "T/C", "setting": "dose: 50.0 mg/kg/injection, schedule: Q01DX005 (ip), vehicle: saline with Tween-80", "result": "104 % of control"},
      {"measurement": "T/C", "setting": "dose: 100.0 mg/kg/injection, schedule: Q01DX005 (ip), vehicle: saline with Tween-80", "result": "100 % of control"},
      {"measurement": "T/C", "setting": "dose: 200.0 mg/kg/injection, schedule: Q01DX005 (ip), vehicle: saline with Tween-80", "result": "108 % of control"}
    ]},
    {"smiles": "COc1cc(OC)c2c[n+](C)c3c4cc(OC)c(OC)cc4ccc3c2c1", "values": [
      {"measurement": "T/C", "setting": "dose: 20.0 mg/kg/injection, schedule: Q01DX009 (ip), vehicle: saline with Tween-80", "result": "161 % of control"},
      {"measurement": "T/C", "setting": "dose: 40.0 mg/kg/injection, schedule: Q01DX009 (ip), vehicle: saline with Tween-80", "result": "169 % of control"}
    ]},
    {"smiles": "COC(=O)c1nnn(-c2ccc(S(N)(=O)=O)cc2)c1N", "values": [
      {"measurement": "T/C", "setting": "[4]", "result": "98 % of control"},
      {"measurement": "T/C", "setting": "[5]", "result": "104 % of control"},
      {"measurement": "T/C", "setting": "[6]", "result": "98 % of control"}
    ]},
    {"smiles": "Cc1csc2ccccc12", "values": [
      {"measurement": "T/C", "setting": "[7]", "result": "102 % of control"},
      {"measurement": "T/C", "setting": "[8]", "result": "101 % of control"},
      {"measurement": "T/C", "setting": "[9]", "result": "119 % of control"},
      {"measurement": "T/C", "setting": "[10]", "result": "100 % of control"},
      {"measurement": "T/C", "setting": "[11]", "result": "92 % of control"},
      {"measurement": "T/C", "setting": "[12]", "result": "100 % of control"}
    ]},
    {"smiles": "COc1ccc(C2=CC3CCC(C2)N3C)cc1", "note": "(configuration not stated)", "values": [
      {"measurement": "T/C", "setting": "[13]", "result": "96 % of control"},
      {"measurement": "T/C", "setting": "[14]", "result": "110 % of control"},
      {"measurement": "T/C", "setting": "dose: 12.5 mg/kg/injection, schedule: Q01DX005 (ip), vehicle: saline", "result": "102 % of control"},
      {"measurement": "T/C", "setting": "[15]", "result": "110 % of control and 113 % of control"},
      {"measurement": "T/C", "setting": "dose: 25.0 mg/kg/injection, schedule: Q01DX005 (ip), vehicle: saline", "result": "98 % of control"},
      {"measurement": "T/C", "setting": "dose: 50.0 mg/kg/injection, schedule: Q01DX005 (ip), vehicle: saline", "result": "94 % of control"}
    ]},
    {"smiles": "COc1ccc(O)c(C(c2cc(OC)ccc2O)c2cc(OC)ccc2O)c1", "values": [
      {"measurement": "T/C", "setting": "[7]", "result": "115 % of control"},
      {"measurement": "T/C", "setting": "[9]", "result": "115 % of control"},
      {"measurement": "T/C", "setting": "[11]", "result": "115 % of control"}
    ]},
    {"smiles": "CCCCCCCCCCCCCC[N+]1([O-])CCCCC1", "values": [
      {"measurement": "T/C", "setting": "dose: 12.5 mg/kg/injection, schedule: Q01DX009 (ip), vehicle: saline", "result": "100 % of control"},
      {"measurement": "T/C", "setting": "dose: 25.0 mg/kg/injection, schedule: Q01DX009 (ip), vehicle: saline", "result": "92 % of control"},
      {"measurement": "T/C", "setting": "[1]", "result": "106 % of control and 91 % of control"}
    ]},
    {"smiles": "[O-][n+]1cscc1-c1nc2ccccc2[nH]1", "values": [
      {"measurement": "T/C", "setting": "dose: 50.0 mg/kg/injection, schedule: Q01DX005 (ip), vehicle: Klucel (hydroxypropylcellulose) (HPC)", "result": "100 % of control"},
      {"measurement": "T/C", "setting": "dose: 100.0 mg/kg/injection, schedule: Q01DX005 (ip), vehicle: Klucel (hydroxypropylcellulose) (HPC)", "result": "98 % of control"},
      {"measurement": "T/C", "setting": "dose: 200.0 mg/kg/injection, schedule: Q01DX005 (ip), vehicle: Klucel (hydroxypropylcellulose) (HPC)", "result": "102 % of control"}
    ]},
    {"smiles": "CCCCN=Cc1c(OC(C)=O)c(OC(C)=O)c(C(C)C)c2cc(C)c(-c3c(C)cc4c(C(C)C)c(OC(C)=O)c(OC(C)=O)c(C=NCCCC)c4c3OC(C)=O)c(OC(C)=O)c12", "values": [
      {"measurement": "T/C", "setting": "[13]", "result": "95 % of control"},
      {"measurement": "T/C", "setting": "[14]", "result": "98 % of control"},
      {"measurement": "T/C", "setting": "[15]", "result": "97 % of control"}
    ]},
    {"smiles": "N#CC(Cc1ccc(CC(C#N)(c2ccccc2)c2ccccn2)cc1)(c1ccccc1)c1ccccn1", "note": "(configuration not stated)", "values": [
      {"measurement": "T/C", "setting": "[8]", "result": "100 % of control"},
      {"measurement": "T/C", "setting": "[10]", "result": "91 % of control"},
      {"measurement": "T/C", "setting": "[12]", "result": "86 % of control"}
    ]},
    {"smiles": "CC1=NNC(C)(C)C1", "values": [
      {"measurement": "T/C", "setting": "[2]", "result": "105 % of control"},
      {"measurement": "T/C", "setting": "[3]", "result": "105 % of control"},
      {"measurement": "T/C", "setting": "dose: 400.0 mg/kg/injection, schedule: Q01DX009 (ip), vehicle: saline", "result": "110 % of control"}
    ]},
    {"smiles": "CSc1ccccc1N1C(=O)CSC1=S", "values": [
      {"measurement": "T/C", "setting": "dose: 50.0 mg/kg/injection, schedule: Q01DX009 (ip), vehicle: Klucel (hydroxypropylcellulose) (HPC)", "result": "108 % of control"},
      {"measurement": "T/C", "setting": "dose: 100.0 mg/kg/injection, schedule: Q01DX009 (ip), vehicle: Klucel (hydroxypropylcellulose) (HPC)", "result": "96 % of control"},
      {"measurement": "T/C", "setting": "dose: 200.0 mg/kg/injection, schedule: Q01DX009 (ip), vehicle: Klucel (hydroxypropylcellulose) (HPC)", "result": "89 % of control"}
    ]}
  ]
}
